Laboratory results as given in the supplement of paper PMC11061612.

What was measured:
Assay in all cases: combination Emax (second highest fraction inhibited in the dose matrix, 72 h); higher = more inhibition; extreme values may be limits of the assay
Saos-2 (Osteosarcoma) = system: Saos-2 (Osteosarcoma)
Outline: (§1)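 Bliss excess equals the observed combination effect minus the expected value EA + EB − EA·EB, where EA and EB are the effects of each agent alone. Combination Emax is the second-highest inhibition within the matrix. Inhibition was scaled from CellTiter-Glo 2.0 luminescence, with 0 set by vehicle wells and 1 by blank wells, after 72 hours of two-drug dosing of cells plated in 1536-well plates.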

[1] = system: BICR78 (Oral Cavity Carcinoma)
Outline: as §1

D-392MG (Glioblastoma) = system: D-392MG (Glioblastoma)
Outline: as §1

[2] = system: CAL-39 (Other Solid Carcinomas)
Outline: as §1

[3] = system: PA-TU-8902 (Pancreatic Carcinoma)
Outline: as §1

[4] = system: U-118-MG (Low Grade Glioma)
Outline: as §1

[5] = system: SKN-3 (Head and Neck Carcinoma)
Outline: as §1

[6] = system: EFM-192A (Breast Carcinoma)
Outline: as §1

[7] = system: NCI-H1688 (Small Cell Lung Carcinoma)
Outline: as §1

[8] = system: P31-FUJ (Acute Myeloid Leukemia)
Outline: as §1

[9] = system: HCT-116 (Colorectal Carcinoma)
Outline: as §1

[10] = system: RCC10RGB (Kidney Carcinoma)
Outline: as §1

[11] = system: HOP-92 (Non-Small Cell Lung Carcinoma)
Outline: as §1

[12] = system: YT (Other Blood Carcinomas)
Outline: as §1

[13] = system: HLE (Hepatocellular Carcinoma)
Outline: as §1

[14] = system: NOMO-1 (Acute Myeloid Leukemia)
Outline: as §1

HuO9 (Osteosarcoma) = system: HuO9 (Osteosarcoma)
Outline: as §1

[15] = system: KG-1 (Acute Myeloid Leukemia)
Outline: as §1

[16] = system: SNU-61 (Colorectal Carcinoma)
Outline: as §1

[17] = system: GDM-1 (Acute Myeloid Leukemia)
Outline: as §1

Compound	combination Emax (Saos-2 (Osteosarcoma))	combination Emax [1]	combination Emax (D-392MG (Glioblastoma))	combination Emax [2]	combination Emax [3]	combination Emax [4]	combination Emax [5]	combination Emax [6]	combination Emax [7]	combination Emax [8]	combination Emax [9]	combination Emax [10]	combination Emax [11]	combination Emax [12]	combination Emax [13]	combination Emax [14]	combination Emax (HuO9 (Osteosarcoma))	combination Emax [15]	combination Emax [16]	combination Emax [17]
C[C@@H](c1ccc2nccn2c1)n1nnc2ncc(-c3cnn(C)c3)nc21 [Savolitinib] + CC1(C)CCC(CN2CCN(c3ccc(C(=O)NS(=O)(=O)c4ccc(NCC5CCOCC5)c([N+](=O)[O-])c4)c(Oc4cnc5[nH]ccc5c4)c3)CC2)=C(c2ccc(Cl)cc2)C1 [Venetoclax] (first compound max 1 µM, 7x7, partner max 1 µM)	0.121	0.201	0.266	0.157	0.168	0.218	0.148	0.174	0.239	0.372	0.114	0.195	0.201	0.336	0.155	0.395	0.197	0.38	0.143	0.515
C[C@@H](c1ccc2nccn2c1)n1nnc2ncc(-c3cnn(C)c3)nc21 [Savolitinib] + Cc1c2c(nn1C)CSCc1cc(n(C)n1)CSc1cc(c3ccccc3c1)OCCCc1c(C(=O)O)n(C)c3c-2c(Cl)ccc13 [AZD5991] (first compound max 1 µM, 7x7, partner max 1 µM)	0.229	0.231	0.31	0.264	0.184	0.258	0.216	0.587	0.314	0.94	0.162	0.289	0.197	1	0.164	0.864	0.739	0.711	0.151	0.208
Cn1cnc2c(F)c(Nc3ccc(Br)cc3Cl)c(C(=O)NOCCO)cc21 [Selumetinib] + C=CCn1c(=O)c2cnc(Nc3ccc(N4CCN(C)CC4)cc3)nc2n1-c1cccc(C(C)(C)O)n1 [AZD1775] (first compound max 10 µM, partner max 1 µM)	0.551	0.344	0.263	0.726	0.571	0.327	0.477	0.248	0.525	0.935	0.785	0.591	0.503	0.945	0.345	0.999	0.747	0.587	0.527	0.898
Cn1cnc2c(F)c(Nc3ccc(Br)cc3Cl)c(C(=O)NOCCO)cc21 [Selumetinib] + CC(C)n1c(=O)n(C)c2cnc3cc(F)c(-c4ccc(OCCCN5CCCCC5)nc4)cc3c21 [AZD1390] (first compound max 10 µM, 7x7, partner max 0.3 µM)	0.153	0.3	0.145	0.643	0.307	0.178	0.228	0.103	0.223	0.555	0.664	0.437	0.402	0.16	0.122	0.767	0.626	0.307	0.389	0.165
Cn1cnc2c(F)c(Nc3ccc(Br)cc3Cl)c(C(=O)NOCCO)cc21 [Selumetinib] + CCN(CCO)CCCOc1ccc2c(Nc3cc(CC(=O)Nc4cccc(F)c4)[nH]n3)ncnc2c1 [AZD2811] (first compound max 10 µM, 7x7, partner max 1 µM)	0.472	0.322	0.197	0.72	0.445	0.287	0.27	0.167	0.169	0.951	0.792	0.505	0.495	0.229	0.235	0.988	0.242	0.392	0.486	0.861
Cn1cnc2c(F)c(Nc3ccc(Br)cc3Cl)c(C(=O)NOCCO)cc21 [Selumetinib] + C[C@@H]1COCCN1C2=NC(=NC(=C2)C3(CC3)[S@](=N)(=O)C)C4=C5C=CNC5=NC=C4 [AZD6738] (first compound max 10 µM, 7x7, partner max 10 µM)	0.456	0.592	0.302	0.697	0.357	0.479	0.457	0.135	0.165	0.948	0.8	0.513	0.398	0.801	0.404	0.994	0.726	0.787	0.527	0.755
CC(=O)Nc1cccc(-n2c(=O)n(C3CC3)c(=O)c3c(Nc4ccc(I)cc4F)n(C)c(=O)c(C)c32)c1 [Trametinib] + Cc1nc(-c2cn3c(n2)-c2ccc(-c4cnn(C(C)(C)C(N)=O)c4)cc2OCC3)n(C(C)C)n1 [Taselisib] (first compound max 1 µM, 7x7, partner max 10 µM)	0.681	0.726	0.709	1	0.724	0.757	0.655	0.72	0.628	0.915	1	0.69	0.988	0.711	0.401	0.98	0.8	0.412	0.672	0.88
CC1(C)CCC(CN2CCN(c3ccc(C(=O)NS(=O)(=O)c4ccc(NCC5CCOCC5)c([N+](=O)[O-])c4)c(Oc4cnc5[nH]ccc5c4)c3)CC2)=C(c2ccc(Cl)cc2)C1 [Venetoclax] + C1CN(CCC1(C(=O)N[C@@H](CCO)C2=CC=C(C=C2)Cl)N)C3=NC=NC4=C3C=CN4 [Capivasertib] (first compound max 1 µM, 7x7, partner max 3 µM)	0.412	0.323	0.239	0.279	0.162	0.4	0.0823	0.379	0.294	0.896	0.309	0.197	0.402	0.47	0.181	0.919	0.488	0.516	0.154	0.866
CC1(C)CCC(CN2CCN(c3ccc(C(=O)NS(=O)(=O)c4ccc(NCC5CCOCC5)c([N+](=O)[O-])c4)c(Oc4cnc5[nH]ccc5c4)c3)CC2)=C(c2ccc(Cl)cc2)C1 [Venetoclax] + C=CCn1c(=O)c2cnc(Nc3ccc(N4CCN(C)CC4)cc3)nc2n1-c1cccc(C(C)(C)O)n1 [AZD1775] (first compound max 1 µM, partner max 1 µM)	0.818	0.553	0.5	0.36	0.286	0.357	0.402	0.327	0.666	0.942	0.579	0.572	0.48	0.928	0.749	0.99	0.759	0.913	0.373	1
CC1(C)CCC(CN2CCN(c3ccc(C(=O)NS(=O)(=O)c4ccc(NCC5CCOCC5)c([N+](=O)[O-])c4)c(Oc4cnc5[nH]ccc5c4)c3)CC2)=C(c2ccc(Cl)cc2)C1 [Venetoclax] + CCN(CCO)CCCOc1ccc2c(Nc3cc(CC(=O)Nc4cccc(F)c4)[nH]n3)ncnc2c1 [AZD2811] (first compound max 1 µM, 7x7, partner max 1 µM)	0.648	0.245	0.217	0.285	0.192	0.357	0.19	0.212	0.242	0.932	0.456	0.212	0.476	0.344	0.416	0.905	0.336	0.84	0.168	0.996
CC1(C)CCC(CN2CCN(c3ccc(C(=O)NS(=O)(=O)c4ccc(NCC5CCOCC5)c([N+](=O)[O-])c4)c(Oc4cnc5[nH]ccc5c4)c3)CC2)=C(c2ccc(Cl)cc2)C1 [Venetoclax] + CN(C)CCCOc1ccc(-c2ccc3ncc4c(c3c2)n(C2CCOCC2)c(=O)n4C)cn1 [AZD0156] (first compound max 1 µM, 7x7, partner max 1 µM)	0.42	0.297	0.205	0.21	0.209	0.217	0.134	0.25	0.195	0.861	0.196	0.174	0.292	0.475	0.171	0.912	0.343	0.595	0.182	0.679
CC1(C)CCC(CN2CCN(c3ccc(C(=O)NS(=O)(=O)c4ccc(NCC5CCOCC5)c([N+](=O)[O-])c4)c(Oc4cnc5[nH]ccc5c4)c3)CC2)=C(c2ccc(Cl)cc2)C1 [Venetoclax] + COc1cc(Nc2ncc3c(n2)-c2ccc(Cl)cc2C(c2c(F)cccc2OC)=NC3)ccc1C(=O)O [Alisertib] (first compound max 1 µM, 7x7, partner max 10 µM)	0.682	0.38	0.416	0.704	0.394	0.527	0.374	0.167	0.398	0.906	0.581	0.568	0.57	0.555	0.598	0.884	0.682	1	0.263	0.98
